Test results published in paper PMC9609070 (ACS Omega, 2022).
Read-outs that look alike come from different tables or passages of the source.

How the values were obtained:
[1] = Hildebrand solubility parameter of meloxicam; format: physicochemical; conditions: expected from the solubility maximum in neat NMP; T=298.15 K
[2] = Preferential solvation analysis by inverse Kirkwood–Buff integrals; format: physicochemical; conditions: NMP+water, T=298.15 K
[3] = neat water, x1=0.000, cited from earlier work
[4] = neat water, x1=0.000; Thm=303.0 K; cited from earlier work

Cc1cnc(NC(=O)C2=C(O)c3ccccc3S(=O)(=O)N2C)s1 [Meloxicam, 4-hydroxy-2-methyl-N-(5-methyl-2-thiazolyl)-2H-1,2-benzothiazine-3-carboxamide-1,1-dioxide]
Hildebrand solubility parameter δ3, solubility-based [1]: lower than 23.6 MPa^1/2
100 δx1,3 (preferential solvation parameter by NMP) ([2]; x1=0.00): 0.00
D (derivative of Gibbs energy of transfer vs x1) ([2]; x1=0.00): –71.31 kJ·mol^–1
G1,3 (Kirkwood–Buff integral) ([2]; x1=0.00): –702.7 cm^3·mol^–1
G2,3 (Kirkwood–Buff integral) ([2]; x1=0.00): –182.2 cm^3·mol^–1
100 δx1,3 (preferential solvation parameter by NMP) ([2]; x1=0.05): –3.21
D (derivative of Gibbs energy of transfer vs x1) ([2]; x1=0.05): –64.29 kJ·mol^–1
G1,3 (Kirkwood–Buff integral) ([2]; x1=0.05): –669.9 cm^3·mol^–1
G2,3 (Kirkwood–Buff integral) ([2]; x1=0.05): –311.3 cm^3·mol^–1
δx1,3 (preferential solvation parameter by NMP) ([2]; x1=0.05): −3.21 × 10^–2
100 δx1,3 (preferential solvation parameter by NMP) ([2]; x1=0.10): –3.19
D (derivative of Gibbs energy of transfer vs x1) ([2]; x1=0.10): –57.63 kJ·mol^–1
G1,3 (Kirkwood–Buff integral) ([2]; x1=0.10): –596.6 cm^3·mol^–1
G2,3 (Kirkwood–Buff integral) ([2]; x1=0.10): –417.0 cm^3·mol^–1
δx1,3 (preferential solvation parameter by NMP) ([2]; x1=0.10): −3.19 × 10^–2
100 δx1,3 (preferential solvation parameter by NMP) ([2]; x1=0.15): –0.64
D (derivative of Gibbs energy of transfer vs x1) ([2]; x1=0.15): –51.33 kJ·mol^–1
G1,3 (Kirkwood–Buff integral) ([2]; x1=0.15): –513.2 cm^3·mol^–1
G2,3 (Kirkwood–Buff integral) ([2]; x1=0.15): –484.4 cm^3·mol^–1
100 δx1,3 (preferential solvation parameter by NMP) ([2]; x1=0.20): 1.92
D (derivative of Gibbs energy of transfer vs x1) ([2]; x1=0.20): –45.42 kJ·mol^–1
G1,3 (Kirkwood–Buff integral) ([2]; x1=0.20): –438.6 cm^3·mol^–1
G2,3 (Kirkwood–Buff integral) ([2]; x1=0.20): –519.2 cm^3·mol^–1
100 δx1,3 (preferential solvation parameter by NMP) ([2]; x1=0.25): 3.70
D (derivative of Gibbs energy of transfer vs x1) ([2]; x1=0.25): –39.89 kJ·mol^–1
G1,3 (Kirkwood–Buff integral) ([2]; x1=0.25): –378.9 cm^3·mol^–1
G2,3 (Kirkwood–Buff integral) ([2]; x1=0.25): –532.6 cm^3·mol^–1
100 δx1,3 (preferential solvation parameter by NMP) ([2]; x1=0.30): 4.75
D (derivative of Gibbs energy of transfer vs x1) ([2]; x1=0.30): –34.76 kJ·mol^–1
G1,3 (Kirkwood–Buff integral) ([2]; x1=0.30): –332.9 cm^3·mol^–1
G2,3 (Kirkwood–Buff integral) ([2]; x1=0.30): –533.5 cm^3·mol^–1
100 δx1,3 (preferential solvation parameter by NMP) ([2]; x1=0.35): 5.27
D (derivative of Gibbs energy of transfer vs x1) ([2]; x1=0.35): –30.04 kJ·mol^–1
G1,3 (Kirkwood–Buff integral) ([2]; x1=0.35): –298.0 cm^3·mol^–1
G2,3 (Kirkwood–Buff integral) ([2]; x1=0.35): –527.4 cm^3·mol^–1
δx1,3 (preferential solvation parameter by NMP) ([2]; x1=0.40 (maximum)): 5.41 × 10^–2
100 δx1,3 (preferential solvation parameter by NMP) ([2]; x1=0.40): 5.41
D (derivative of Gibbs energy of transfer vs x1) ([2]; x1=0.40): –25.73 kJ·mol^–1
G1,3 (Kirkwood–Buff integral) ([2]; x1=0.40): –271.3 cm^3·mol^–1
G2,3 (Kirkwood–Buff integral) ([2]; x1=0.40): –517.0 cm^3·mol^–1
100 δx1,3 (preferential solvation parameter by NMP) ([2]; x1=0.45): 5.28
D (derivative of Gibbs energy of transfer vs x1) ([2]; x1=0.45): –21.85 kJ·mol^–1
G1,3 (Kirkwood–Buff integral) ([2]; x1=0.45): –250.7 cm^3·mol^–1
G2,3 (Kirkwood–Buff integral) ([2]; x1=0.45): –503.6 cm^3·mol^–1
100 δx1,3 (preferential solvation parameter by NMP) ([2]; x1=0.50): 4.96
D (derivative of Gibbs energy of transfer vs x1) ([2]; x1=0.50): –18.40 kJ·mol^–1
G1,3 (Kirkwood–Buff integral) ([2]; x1=0.50): –234.5 cm^3·mol^–1
G2,3 (Kirkwood–Buff integral) ([2]; x1=0.50): –487.7 cm^3·mol^–1
100 δx1,3 (preferential solvation parameter by NMP) ([2]; x1=0.55): 4.49
D (derivative of Gibbs energy of transfer vs x1) ([2]; x1=0.55): –15.39 kJ·mol^–1
G1,3 (Kirkwood–Buff integral) ([2]; x1=0.55): –221.7 cm^3·mol^–1
G2,3 (Kirkwood–Buff integral) ([2]; x1=0.55): –469.5 cm^3·mol^–1
100 δx1,3 (preferential solvation parameter by NMP) ([2]; x1=0.60): 3.93
D (derivative of Gibbs energy of transfer vs x1) ([2]; x1=0.60): –12.84 kJ·mol^–1
G1,3 (Kirkwood–Buff integral) ([2]; x1=0.60): –211.6 cm^3·mol^–1
G2,3 (Kirkwood–Buff integral) ([2]; x1=0.60): –449.4 cm^3·mol^–1
100 δx1,3 (preferential solvation parameter by NMP) ([2]; x1=0.65): 3.34
D (derivative of Gibbs energy of transfer vs x1) ([2]; x1=0.65): –10.75 kJ·mol^–1
G1,3 (Kirkwood–Buff integral) ([2]; x1=0.65): –203.7 cm^3·mol^–1
G2,3 (Kirkwood–Buff integral) ([2]; x1=0.65): –428.7 cm^3·mol^–1
100 δx1,3 (preferential solvation parameter by NMP) ([2]; x1=0.70): 2.76
D (derivative of Gibbs energy of transfer vs x1) ([2]; x1=0.70): –9.13 kJ·mol^–1
G1,3 (Kirkwood–Buff integral) ([2]; x1=0.70): –197.7 cm^3·mol^–1
G2,3 (Kirkwood–Buff integral) ([2]; x1=0.70): –409.5 cm^3·mol^–1
100 δx1,3 (preferential solvation parameter by NMP) ([2]; x1=0.75): 2.24
D (derivative of Gibbs energy of transfer vs x1) ([2]; x1=0.75): –7.99 kJ·mol^–1
G1,3 (Kirkwood–Buff integral) ([2]; x1=0.75): –193.3 cm^3·mol^–1
G2,3 (Kirkwood–Buff integral) ([2]; x1=0.75): –394.9 cm^3·mol^–1
100 δx1,3 (preferential solvation parameter by NMP) ([2]; x1=0.80): 1.81
D (derivative of Gibbs energy of transfer vs x1) ([2]; x1=0.80): –7.33 kJ·mol^–1
G1,3 (Kirkwood–Buff integral) ([2]; x1=0.80): –190.1 cm^3·mol^–1
G2,3 (Kirkwood–Buff integral) ([2]; x1=0.80): –388.5 cm^3·mol^–1
100 δx1,3 (preferential solvation parameter by NMP) ([2]; x1=0.85): 1.44
D (derivative of Gibbs energy of transfer vs x1) ([2]; x1=0.85): –7.18 kJ·mol^–1
G1,3 (Kirkwood–Buff integral) ([2]; x1=0.85): –187.8 cm^3·mol^–1
G2,3 (Kirkwood–Buff integral) ([2]; x1=0.85): –394.4 cm^3·mol^–1
100 δx1,3 (preferential solvation parameter by NMP) ([2]; x1=0.90): 1.10
D (derivative of Gibbs energy of transfer vs x1) ([2]; x1=0.90): –7.54 kJ·mol^–1
G1,3 (Kirkwood–Buff integral) ([2]; x1=0.90): –186.0 cm^3·mol^–1
G2,3 (Kirkwood–Buff integral) ([2]; x1=0.90): –417.8 cm^3·mol^–1
100 δx1,3 (preferential solvation parameter by NMP) ([2]; x1=0.95): 0.69
D (derivative of Gibbs energy of transfer vs x1) ([2]; x1=0.95): –8.41 kJ·mol^–1
G1,3 (Kirkwood–Buff integral) ([2]; x1=0.95): –184.2 cm^3·mol^–1
G2,3 (Kirkwood–Buff integral) ([2]; x1=0.95): –467.3 cm^3·mol^–1
100 δx1,3 (preferential solvation parameter by NMP) ([2]; x1=1.00): 0.00
D (derivative of Gibbs energy of transfer vs x1) ([2]; x1=1.00): –9.81 kJ·mol^–1
G1,3 (Kirkwood–Buff integral) ([2]; x1=1.00): –181.8 cm^3·mol^–1
G2,3 (Kirkwood–Buff integral) ([2]; x1=1.00): –563.4 cm^3·mol^–1
Activity coefficient (γ3) ([3]; T=293.15 K): 2396
Activity coefficient (γ3) ([3]; T=298.15 K): 2708
Activity coefficient (γ3) ([3]; T=303.15 K): 3055
Activity coefficient (γ3) ([3]; T=308.15 K): 3376
Activity coefficient (γ3) ([3]; T=313.15 K): 3755
TΔsolnS° [4]: –26.66 kJ·mol^–1
ΔsolnG° (apparent Gibbs energy of dissolution) [4]: 34.35 kJ·mol^–1
ΔsolnH° (apparent enthalpy of dissolution) [4]: 7.69 kJ·mol^–1
ΔsolnS° (apparent entropy of dissolution) [4]: –87.99 J·mol^–1·K^–1
